The source of these data is patent publication US20120252721A1 (priority 2011, published 2012).

For orientation: CC50 means the concentration at which the toxic effect on the cells reaches its halfway point. A low value points to harm at low concentration.

The data set is described as follows: in vitro. Type of data set: cell-based, human. Particulars: human; Table 1B, cellular viability. The method, boiled down: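 Cytotoxicity counter-screen in which the H1a-luc or Zluc cells were compound-treated and viability was read with the CellTiter 96 AQueous One (MTS) reagent by absorbance at 490 nm. CC50 values came from curve fitting.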

In turn, `COC(=O)N[C@H](C(=O)N1CCC[C@H]1c1ncc(-c2ccc(-c3csc4c(-c5cnc([C@@H]6CCCN6C(=O)[C@@H](NC(=O)OC)C(C)C)[nH]5)csc34)cc2)[nH]1)C(C)C` [Compound A15, [(S)-1-((S)-2-{4-[4-(6-{2-[(S)-1-((S)-2-methoxycarbonylamino-3-methyl-butyryl)-pyrrolidin-2-yl]-3H-imidazol-4-yl}-thieno[3,2-b]thiophen-3-yl)-phenyl]-1H-imidazol-2-yl}-pyrrolidine-1-carbonyl)-2-methyl-propyl]-carbamic acid methyl ester] gave a cytotoxic concentration (CC50) of 10 to 75 µM.
